Target: T1, TAS2R31 (Homo sapiens, UniProt P59538)
T1 construct: pEAK10; transient in HEK293T with chimeric G protein Galpha16gust44 (and mt-apoclytin II reporter)
T1 sequence (P59538 1-309): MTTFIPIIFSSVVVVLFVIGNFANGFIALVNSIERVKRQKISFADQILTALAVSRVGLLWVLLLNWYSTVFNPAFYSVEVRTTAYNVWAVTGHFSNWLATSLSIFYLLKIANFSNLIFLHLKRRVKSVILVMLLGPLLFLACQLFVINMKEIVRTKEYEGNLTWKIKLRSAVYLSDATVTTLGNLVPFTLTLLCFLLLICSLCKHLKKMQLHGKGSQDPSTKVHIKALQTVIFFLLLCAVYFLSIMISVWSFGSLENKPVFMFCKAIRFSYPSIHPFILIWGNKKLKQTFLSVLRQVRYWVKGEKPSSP
Assay: luminescence (mt-apoclytin II) Ca2+ assay, HEK293T
Format: cell-based

SMILES | IC50 [µM]
CC(C)=C1CC[C@@H](C)CC1=O [(+)‐pulegone] | 290 ± 47
CC1=CC(=O)[C@@H](C(C)C)CC1 [(R)‐(‐)‐piperitone] | 180 ± 19
CC(C)[C@@H]1CC[C@@H](C)C[C@H]1O [(−)‐menthol] | 310 ± 58
CC(C)[C@@H]1CC[C@@H](C)CC1=O [menthone] | 570 ± 100

Results, then the compound that gave them:

IC50 [µM] | SMILES
220 ± 15 | CC(C)[C@H]1CC[C@H](C)C[C@@H]1O [(+)‐menthol]
86 | C=C(C)[C@@H]1CC=C(C)C(=O)C1 [(R)‐(‐)‐carvone]

— publication PMC12667198, “Menthol‐like cooling compounds, including (R)‐(‐)‐carvone, inhibit the human bitter taste receptors for saccharin and acesulfame K” (FEBS Open Bio, 2025)
